By Kd is commonly meant the free concentration of one partner at which half of the binding sites on the other are occupied at equilibrium, for simple one-to-one binding.

Test [1] relates to 8,000 human proteins (GST fusion). Nature of the test: Invitrogen Protoarray Human Protein Microarray binding pattern (8,000 features). The following applies: fluorescence intensity on human protein microarray. As to the method:
Two biotinylated anti-TRF synbodies (SYN23-26 and SYN 21-22) were applied to a protein microarray having 8,000 features (Invitrogen Protoarray Human Protein Microarray v. 4.0 for immune response biomarker profiling), each feature comprising a distinct human protein (GST fusion) adsorbed to a nitrocellulose coated slide. Application of the synbodies to the microarray was performed in accordance with manufacturer instructions: (see ProtoArray Human Protein Microarray, Invitrogen, Catalog no. PAH052401, Version B, 15 Dec. 2006, 25-0970, Users Manual.) After blocking the array with 1% BSA/PBS/0.1% Tween for 1 hour at 4C with gentle shaking, 120 μl of probing buffer (1×PBS, 5 mM mgC12, 0.5 mM DTT, 0.05% Triton X-100, 5% glycerol, 1% BSA) with synbody was applied to the array. The prescribed cover slip was placed over the array and adjusted to remove air bubbles. The array was incubated in a 50 ml conical tube, printed side up, for 1.5 hours at 4C without shaking. The array was then removed from the conical tube inserted diagonally into the array chamber, kept on ice. 8 ml probing buffer was added to the chamber wall. The cover slip was removed and the array was incubated in probing buffer for 1 minute on ice. […] The array was dried in the dark for 60 minutes at room temperature, after which it was scanned using a fluorescent microarray scanner and data was taken and analyzed.

The target in test [2] is AKT1 (Homo sapiens, UniProt P31749). As to the kind of experiment: SPR of SYN23-26 binding to AKT1. The following applies: read-out: estimated Kd with respect to AKT1.
Chain of AKT1 (P31749 whole entry): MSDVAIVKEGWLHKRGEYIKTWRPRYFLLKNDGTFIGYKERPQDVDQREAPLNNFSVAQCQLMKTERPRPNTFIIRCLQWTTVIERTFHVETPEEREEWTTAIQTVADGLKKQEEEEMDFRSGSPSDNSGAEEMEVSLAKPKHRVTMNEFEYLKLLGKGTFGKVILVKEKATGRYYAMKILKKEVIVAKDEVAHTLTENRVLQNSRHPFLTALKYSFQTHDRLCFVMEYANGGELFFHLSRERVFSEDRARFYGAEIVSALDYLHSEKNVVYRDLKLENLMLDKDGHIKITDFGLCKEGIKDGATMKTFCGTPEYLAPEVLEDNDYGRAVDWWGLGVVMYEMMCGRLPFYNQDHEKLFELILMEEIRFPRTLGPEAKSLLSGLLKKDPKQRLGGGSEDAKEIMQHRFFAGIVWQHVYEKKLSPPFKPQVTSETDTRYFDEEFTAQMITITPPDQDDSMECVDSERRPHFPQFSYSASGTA
In test [3] the target is T1, transferrin (Homo sapiens, UniProt P02787). As to the kind of experiment: SPR of SYN23-26 binding to transferrin. As to conditions: read-out: estimated Kd with respect to transferrin.
T1 sequence (P02787 20-698): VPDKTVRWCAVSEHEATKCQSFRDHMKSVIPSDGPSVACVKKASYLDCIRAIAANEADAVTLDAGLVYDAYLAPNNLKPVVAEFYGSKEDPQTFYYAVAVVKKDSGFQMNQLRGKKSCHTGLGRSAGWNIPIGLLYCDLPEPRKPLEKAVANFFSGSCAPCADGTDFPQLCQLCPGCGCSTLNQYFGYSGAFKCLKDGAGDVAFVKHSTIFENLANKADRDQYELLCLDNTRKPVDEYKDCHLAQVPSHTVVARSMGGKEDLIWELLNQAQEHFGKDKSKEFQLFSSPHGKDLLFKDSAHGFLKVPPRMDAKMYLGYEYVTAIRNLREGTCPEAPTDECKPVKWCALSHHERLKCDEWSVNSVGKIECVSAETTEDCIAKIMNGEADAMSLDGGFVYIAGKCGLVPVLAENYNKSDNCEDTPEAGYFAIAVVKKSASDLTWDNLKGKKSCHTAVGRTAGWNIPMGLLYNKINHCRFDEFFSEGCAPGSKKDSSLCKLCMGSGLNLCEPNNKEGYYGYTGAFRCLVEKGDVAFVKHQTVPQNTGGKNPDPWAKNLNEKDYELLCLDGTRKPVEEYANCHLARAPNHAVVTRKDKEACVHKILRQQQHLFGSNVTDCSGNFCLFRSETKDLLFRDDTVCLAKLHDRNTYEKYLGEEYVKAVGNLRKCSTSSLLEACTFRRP
For test [4], the target named is T1, transferrin. As to the kind of experiment: SPR of lysine-linked synbodies on immobilized transferrin, Kd from kinetics. Type of test: binding. As to conditions: Kd determined from kinetics; read-out: Kd with respect to transferrin. As to the method:
Transferrin 25 μg/ml in immobilization buffer selected for correct pH was then applied 302 at a flow rate of 5 to 10 μl/min for a contact time of about 5 to 10 minutes, allowing the amine functionality on the transferrin 308 to displace the activated NHS ester and bond to the surface via an amide bond. Finally, ethylene diamine (1-Methylene diamine-HCl at pH 8.5) was applied 304 at a flow rate of 5 to 10 μl/min for a contact time of about 6 to 7 minutes to deactivate any remaining reactive groups on the dextran chip surface. Flow rates and contact times are adjusted as necessary to provide the surface concentration of target desired for the intended application, and may vary by target. In general, for evaluating whether binding occurs, it is preferable to immobilize a relatively large quantity of target, and higher flow rates and/or longer contact times may be used. For determining kinetics, it is preferable to limit the amount of target immobilized so as to minimize rebinding and avidity effects, and lower flow rates and/or contact times may be used.
Candidate affinity elements for the transferrin synbody TRF19, TRF21, TRF23, TRF24, TRF25, and TRF26 were individually evaluated for solution phase KD with respect to transferrin by SPR analysis. […]

Bridges are numbered along the chain shown (N, C = ends). Roman numbers before positions name the chains, in order. Where no end group is shown, it is not given here.

In the case of “I: AHKVVPQRQIRHAYNRYGSGKC / II: FRGWAHIFFGPHVIYRGGSG (amide I:21-II:C) [SYN23-26]”, the “highest affinity target from a library of 8,000” value in test [1] is reported as “PCCA”. Also, the Kd was ~1 nM in test [2], ~141 nM in test [3] and 150 ± 50 nM in test [4].

These data come from US20120021967A1, “SYNTHETIC ANTIBODIES” (Arizona Board of Regents, A Body Corporate of the State Of …, priority 2008, published 2012).
